“Also recorded” adds a separate entry of the source.
Experiments:
Type in all cases: biochemical
MAO-B [1] = target: T1, MAO-B (Homo sapiens, UniProt P27338); assay: Inhibition of MAO-B; conditions: for SI (MAO), selectivity index = IC50 (MAO-A)/IC50(MAO-B): MAO-B over MAO-A; for remaining activity at 10 µM: read-out: Residual activities at 10 μM (%) MAO-B
T1 sequence (P27338 1-520): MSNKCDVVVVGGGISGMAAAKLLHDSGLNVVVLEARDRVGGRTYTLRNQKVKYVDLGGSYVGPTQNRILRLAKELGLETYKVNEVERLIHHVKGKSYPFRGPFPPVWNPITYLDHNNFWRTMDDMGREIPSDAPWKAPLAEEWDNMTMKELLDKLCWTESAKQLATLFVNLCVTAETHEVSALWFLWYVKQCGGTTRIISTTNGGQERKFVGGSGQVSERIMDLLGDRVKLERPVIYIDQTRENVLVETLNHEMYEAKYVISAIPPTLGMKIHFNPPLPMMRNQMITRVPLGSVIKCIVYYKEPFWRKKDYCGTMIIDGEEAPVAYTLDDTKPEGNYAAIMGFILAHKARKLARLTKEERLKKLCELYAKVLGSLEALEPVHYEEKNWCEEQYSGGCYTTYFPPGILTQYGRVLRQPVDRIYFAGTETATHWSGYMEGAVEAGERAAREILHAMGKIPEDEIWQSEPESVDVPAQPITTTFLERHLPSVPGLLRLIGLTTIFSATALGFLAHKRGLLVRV

AChE = assay: Residual activity of AChE at 10 μM; conditions: inhibitor 10 μM
Recombinant human MAO-A = target: T2, Recombinant human MAO-A (Homo sapiens, UniProt P21397); assay: Inhibition of MAO-A; conditions: for remaining activity at 10 µM: read-out: Residual activities at 10 μM (%) MAO-A
T2 sequence (P21397 1-527): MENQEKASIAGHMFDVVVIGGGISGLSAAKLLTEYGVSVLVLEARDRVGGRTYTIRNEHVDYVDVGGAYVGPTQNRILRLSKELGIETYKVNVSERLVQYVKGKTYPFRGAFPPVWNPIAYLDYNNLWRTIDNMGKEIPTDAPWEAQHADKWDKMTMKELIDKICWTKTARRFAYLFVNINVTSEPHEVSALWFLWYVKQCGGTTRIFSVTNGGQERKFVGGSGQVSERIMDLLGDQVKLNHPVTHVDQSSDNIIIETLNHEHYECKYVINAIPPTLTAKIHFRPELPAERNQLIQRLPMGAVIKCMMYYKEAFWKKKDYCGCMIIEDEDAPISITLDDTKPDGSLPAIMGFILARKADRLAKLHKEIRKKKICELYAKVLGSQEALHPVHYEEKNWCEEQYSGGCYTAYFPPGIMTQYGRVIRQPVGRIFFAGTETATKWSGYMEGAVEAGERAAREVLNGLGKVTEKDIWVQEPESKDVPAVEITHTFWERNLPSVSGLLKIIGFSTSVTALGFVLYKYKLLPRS

BChE = assay: Residual activity of BChE at 10 μM; conditions: inhibitor 10 μM
MAO-B [2] = target: T1, MAO-B; assay: Enzyme kinetics of MAO-B inhibition
MAO-B [3] = target: T1, MAO-B; assay: Reversibility of MAO-B inhibition by dialysis; conditions: 2-times IC50

| Structure (SMILES) | IC50 (MAO-B [1]) [µM] | SI (MAO), selectivity index = IC50 (MAO-A)/IC50(MAO-B) (MAO-B [1]) | remaining activity at 10 µM (MAO-B [1]) [%] | Residual activities at 10 μM (%) AChE (AChE) [%] | IC50 (Recombinant human MAO-A) [µM] | remaining activity at 10 µM (Recombinant human MAO-A) [%] | Residual activities at 10 μM (%) BChE (BChE) [%] | Ki (MAO-B [2]) [µM] | Type of MAO-B inhibition (MAO-B [2]; Lineweaver–Burk plot) | Reversibility of MAO-B inhibition (MAO-B [3]) |
| --- | --- | --- | --- | --- | --- | --- | --- | --- | --- | --- |
| O=C1c2ccccc2N(Cc2ccccc2Br)C12CCCC2 [Compound 11k] | 14.3 ± 1.45 | 0.63 | 60.2 ± 1.44 | 68.03 ± 3.68 | 9.01 ± 0.36 | 41.9 ± 4.56 | 51.41 ± 0.53 | – | – | – |
| O=C1c2ccccc2N(Cc2ccc(Br)cc2)C12CCCC2 [Compound 11f] | 1.44 ± 0.21 | 11.91 | 5.22 ± 1.06 | 68.95 ± 0.39 | 17.2 ± 1.14 | 67.9 ± 6.53 | 72.06 ± 6.88 | 0.51 ± 0.023 | competitive inhibitor; also recorded: competitive inhibition | reversible |
| O=C1c2cc(Br)ccc2N(Cc2ccccc2)C12CCCC2 [Compound 11d] | 2.81 ± 0.71 | 5.00 | -16.2 ± 2.34 | 81.90 ± 1.22 | 14 ± 0.96 | 62 ± 0.94 | 71.19 ± 4.17 | – | – | – |
| Cc1ccc2c(c1)C(=O)C1(CCCC1)N2 [Compound 10b] | > 40 | – | 82.2 ± 9.06 | 83.39 ± 1.93 | > 40 | 72.2 ± 3.58 | 73.82 ± 7.10 | – | – | – |
| Cc1ccc2c(c1)C(=O)C1(CCCC1)N2Cc1ccccc1 [Compound 11b] | 5.99 ± 0.36 | – | 26.1 ± 2.75 | 80.92 ± 5.07 | > 40 | 79.6 ± 5.03 | 65.10 ± 0.74 | – | – | – |
| O=C1c2ccccc2NC12CCCC2 [Compound 10a] | 15.6 ± 2.33 | 1.34 | 57 ± 2.99 | 76.29 ± 6.64 | 20.8 ± 2.89 | 66.9 ± 2.47 | 73.90 ± 4.90 | – | – | – |

From article PMC10442599 (RSC Advances, 2023)
